Among the data in patent US9221839B2, “C5-C6 oxacyclic-fused thiadiazine dioxide compounds as BACE inhibitors, compositions, and their use” (Merck Sharp & Dohme Corp., priority 2011, dated 2015) are Ki values, retold here.

Assay [1] concerns the target soluble human BACE1 catalytic domain (Homo sapiens (Human), UniProt P56817). The assay can be described thus: BACE1 HTRF FRET Assay. The format is biochemical. Conditions: Ki calculated from IC50 using the Cheng-Prusoff equation. The source says:
Na^+-Acetate pH 5.0; 1% Brij-35; Glycerol; Dimethyl Sulfoxide (DMSO); Recombinant human soluble BACE1 catalytic domain (>95% pure); APP Swedish mutant peptide substrate (QSY7-APP^swe-Eu): QSY7-[…]-Europium-amide.
A homogeneous time-resolved FRET assay can be used to determine IC50 values for inhibitors of the soluble human BACE1 catalytic domain. This assay monitors the increase of 620 nm fluorescence that resulted from BACE1 cleavage of an APPswedish APP^swe mutant peptide FRET substrate (QSY7-[…]-Europium-amide). This substrate contains an N-terminal QSY7 moiety that serves as a quencher of the C-terminal Europium fluorophore (620 nm Em). In the absence of enzyme activity, 620 nm fluorescence is low in the assay and increased linearly over 3 hours in the presence of uninhibited BACE1 enzyme Inhibition of BACE1 cleavage of the QSY7-APP^swe-Eu substrate by inhibitors is manifested as a suppression of 620 nm fluorescence.
Reactions are initiated by addition of 10 μl of 600 nM QSY7-APP^swe-Eu substrate (200 nM final) to give a final reaction volume of 30 μl in a 384 well Nunc HTRF plate. The reactions are incubated at 30° C. for 1.5 hours. The 620 nm fluorescence is then read on a Rubystar HTRF plate reader (BMG Labtechnologies) using a […] delay followed by a 400 millisecond acquisition time window. Inhibitor IC50 values are derived from non-linear regression analysis of concentration response curves.

Assay [2] has as its target purified human autoBACE-2 (Homo sapiens, UniProt Q9Y5Z0). Description: BACE-2 Assay (BACE-HTRF assay). It counts as biochemical. Conditions: Ki calculated from IC50 using the Cheng-Prusoff equation; read-out: BACE2 Ki. How it is done: Following laser excitation of sample wells at 320 nm, the fluorescence signal at 620 nm is collected for 400 ms following a 50 μs delay on a RUBYstar HTRF plate reader (BMG Labtechnologies). Raw RFU data is normalized to maximum (1.0 nM BACE/DMSO) and minimum (no enzyme/DMSO)RFU values. […] The Ki values are calculated from the IC50 using the Cheng-Prusoff equation.

Sequence of purified human autoBACE-2 (Q9Y5Z0 63-518 limits assumed): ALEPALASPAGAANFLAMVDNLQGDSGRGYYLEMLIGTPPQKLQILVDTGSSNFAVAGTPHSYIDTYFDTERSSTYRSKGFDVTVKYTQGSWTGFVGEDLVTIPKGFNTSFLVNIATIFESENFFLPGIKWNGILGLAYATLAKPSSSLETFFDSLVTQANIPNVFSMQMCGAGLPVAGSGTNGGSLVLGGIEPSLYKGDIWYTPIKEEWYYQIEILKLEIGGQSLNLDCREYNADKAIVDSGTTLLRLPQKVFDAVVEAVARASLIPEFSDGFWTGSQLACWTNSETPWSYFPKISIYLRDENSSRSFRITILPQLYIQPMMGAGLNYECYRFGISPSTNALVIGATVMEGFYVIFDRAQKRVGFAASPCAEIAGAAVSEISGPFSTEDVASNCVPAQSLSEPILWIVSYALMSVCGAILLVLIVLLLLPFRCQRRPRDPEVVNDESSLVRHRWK
Sequence of soluble human BACE1 catalytic domain (P56817 75-416): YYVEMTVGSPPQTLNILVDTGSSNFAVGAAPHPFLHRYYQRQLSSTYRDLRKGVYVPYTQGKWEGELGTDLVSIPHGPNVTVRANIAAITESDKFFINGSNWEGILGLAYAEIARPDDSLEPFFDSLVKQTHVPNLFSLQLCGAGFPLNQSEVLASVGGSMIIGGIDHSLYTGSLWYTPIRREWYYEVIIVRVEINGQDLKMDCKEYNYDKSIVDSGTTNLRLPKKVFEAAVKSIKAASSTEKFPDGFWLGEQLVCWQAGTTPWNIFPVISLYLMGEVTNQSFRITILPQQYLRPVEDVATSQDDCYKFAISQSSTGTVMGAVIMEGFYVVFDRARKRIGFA

The Ki is a dissociation constant, usually derived from enzyme kinetics or from competition with a known ligand. With `CN1C(=N)N[C@@]2(c3cc(NC(=O)c4ccc(F)cn4)ccc3F)COC[C@H]2S1(=O)=O` [Example 1], the figures for the inhibition constant Ki in assay [1] and in assay [2] were 13 nM and 1.9 nM, respectively.
For `CN1C(=N)N[C@]2(c3cc(NC(=O)c4ccc(F)cn4)ccc3F)COC[C@@H]2S1(=O)=O` [Example 1a], the Ki in assay [1] was 3530 nM; in assay [2] it was 491 nM.
Consider `COc1ccc(C(=O)Nc2ccc(F)c([C@]34COC[C@H]3S(=O)(=O)N(C)C(=N)N4)c2)nc1` [Example 3], for which the Ki in assay [1] is 18.2 nM; in assay [2], 8.2 nM.
Consider `COc1ccc(C(=O)Nc2ccc(F)c([C@@]34COC[C@@H]3S(=O)(=O)N(C)C(=N)N4)c2)nc1` [Example 3a], for which the Ki in assay [1] is 872 nM; in assay [2], 476 nM.
Consider `COc1cnc(C(=O)Nc2ccc(F)c([C@]34COC[C@H]3S(=O)(=O)N(C)C(=N)N4)c2)cn1` [Example 4], for which the inhibitory constant (Ki) was 54.1 nM in assay [1] and 48.4 nM in assay [2].
For `COc1cnc(C(=O)Nc2ccc(F)c([C@@]34COC[C@@H]3S(=O)(=O)N(C)C(=N)N4)c2)cn1` [Example 4a], in that order: 1330 nM and 1510 nM.
Turning to `CN1C(=N)N[C@@]2(c3cc(NC(=O)c4ccc(Cl)cn4)ccc3F)COC[C@H]2S1(=O)=O` [Example 5], the inhibition constant (Ki) in assay [1] is 5.07 nM; in assay [2] it was 1.3 nM.
Regarding `CN1C(=N)N[C@]2(c3cc(NC(=O)c4ccc(Cl)cn4)ccc3F)COC[C@@H]2S1(=O)=O` [Example 5a], the Ki was 197 nM in assay [1] and 55.2 nM in assay [2].
As to `CN1C(=N)N[C@@]2(c3cc(NC(=O)c4ccc(C(F)(F)F)cn4)ccc3F)COC[C@H]2S1(=O)=O` [Example 6], the Ki in assay [1] is 9.79 nM; in assay [2] it was 19.5 nM.
For `CN1C(=N)N[C@]2(c3cc(NC(=O)c4ccc(C(F)(F)F)cn4)ccc3F)COC[C@@H]2S1(=O)=O` [Example 6a] the same measures were 354 nM and 473 nM.
For `CN1C(=N)N[C@@]2(c3cc(NC(=O)c4cnc(C(F)(F)F)cn4)ccc3F)COC[C@H]2S1(=O)=O` [Example 6d] the same measures were 28.4 nM and 55 nM.
For `COc1cnc(C(=O)Nc2ccc(F)c([C@]34COC[C@H]3S(=O)(=O)N(C)C(=N)N4)c2)c(F)c1` [Example 6e], in that order: 15.8 nM and 6.9 nM.
Regarding `CN1C(=N)NC2(c3ccccc3F)COCC2S1(=O)=O` (centres unmarked) [Example 6f], the Ki in assay [1] was 7850 nM; in assay [2], 4200 nM.
